# Test results taken from patent publication US20090118285A1, “USE OF KCNQ-OPENERS FOR TREATING OR REDUCING THE SYMPTOMS OF SCHIZOPHRENIA” (H. Lundbeck A/S, priority 2006, published 2009).
# Experiments:
# DA neurons in the VTA = experiment: Spontaneous DA cell firing in the VTA of anaesthetised rats (in vivo electrophysiology); parameters: species or system rat; settings: mean ± SEM
# Excerpt: In the mesolimbic system, all clinically used neuroleptics initially increase the firing rate of dopaminergic neurons (Tung et al., 1991, J. Neural Transm. Gen Sect., 84(1-2), 53-64,). After chronic administration, such neuroleptics eventually (after 3-4 weeks of treatment) decrease the firing rate to below pre-treatment levels (Skarsfeldt 1992, Synapse, 10, 25-33; White and Wang 1983, Science, 221, 1054-1057). This inhibitory effect on dopaminergic neurones, which is believed to be mediated by a depolarization blockade, is thought to be of therapeutic significance to the antipsychotic effect of neuroleptics (Grace and Bunney 1986, J. Pharmacol. Exp. Ther. 238, 1092-1100). […] The presence of KCNQ subunits on DA neurons in the VTA in rodents is well-documented but their functionality is unknown (Saganich et al. 2001, J. Neurosci. 21(13)4609-4624; Cooper et al. 2001, J. Neurosci., 21(24)9529-9540).
# Subjects. Male Wistar rats (Harlan, The Netherlands) weighing 270-340 g were used. The animals were housed under a 12-hr light/dark cycle under controlled conditions for regular in-door temperature (21±2° C.) and humidity (55±5%) with food and tap water available ad libitum.
# Experimental procedure. The rats were anaesthetised with an intraperitoneal injection of chloral hydrate (400 mg/kg). A femoral vein catheter was then inserted for supplementary anaesthetic injections (100 mg/kg) and drug administration. Animals were then mounted in a stereotaxic frame, the skull was exposed, and a hole (0.5×0.5 cm) was drilled above the ventral tegmental area. Extracellular single-cell recordings were performed using electrodes pulled from glass capillaries and filled with 2% Pontamine Sky Blue in 2 M NaCl. The tip of the electrode was broken under microscopic control, yielding an impedance of 2.0-8.0 MΩ at 135 Hz. The electrode was then lowered into the brain, using a hydraulic microdrive, aimed at the following coordinates: 5.5-5.0 mm posterior to Bregma; 0.5-0.9 mm lateral to the midline. Extracellular action potentials were amplified, discriminated and monitored on an oscilloscope and an audiomonitor. Discriminated spikes were collected and analysed using Spike 2 software (Cambridge Electronic Design Ltd., Cambridge, UK) on a PC-based system connected to a CED 1401 interface unit (Cambridge Electronic Design Ltd.). Presumed dopaminergic neurons were typically found 7.0-8.5 mm beneath the brain surface and were characterised by (1) a slow and irregular firing pattern (0.5-10 Hz), and (2) triphasic action potentials with a predominant positive component, a negative component followed by a minor positive component, with an overall duration >2.5 ms (Bunney et al. 1973, J. Pharmacol. Exp. Ther., 185, 560-571.).
# Administration of compounds. […] These i.v. doses match the s.c. dose range of 0-10 mg/kg.
# Statistical analysis. Drug effects were assessed by statistical comparison of the mean firing rate calculated from the 2-3 min period immediately before the first drug administration (baseline) to the mean firing rate calculated from at least 60 s at the maximal drug effect. Data were analysed statistically by a one-way ANOVA followed by Student-Newman-Keuls posthoc test. A p-value less than 0.05 was considered significant.
# [1] = system: incidence of seizures in epileptic patients; settings: clinical trials (Bialer et al. 2002); cited from earlier work
# [2] = system: K(+) current in neuronal cells; settings: cited from earlier work
smiles,measurement,setting,value
CCOC(=O)Nc1ccc(NCc2ccc(F)cc2)cc1N,Spontaneous DA cell firing rate,DA neurons in the VTA; cumulated dose 0.3 mg/kg i.v.,95.4 ± 5.0 (4) percentage of baseline firing rate
same,Spontaneous DA cell firing rate,DA neurons in the VTA; cumulated dose 1.0 mg/kg i.v.,90.5 ± 4.6 (5) percentage of baseline firing rate
same,Spontaneous DA cell firing rate,DA neurons in the VTA; cumulated dose 2.0 mg/kg i.v.,81.1 ± 5.1 (5) percentage of baseline firing rate
same,Spontaneous DA cell firing rate,DA neurons in the VTA; cumulated dose 4.0 mg/kg i.v.,67.1 ± 3.7 (4) percentage of baseline firing rate
same,Spontaneous DA cell firing rate,DA neurons in the VTA; cumulated dose 6.0 mg/kg i.v.,60.6 ± 0.7 (2) percentage of baseline firing rate
same,Incidence of seizures in epileptic patients,[1],shown effectiveness in reducing the incidence of seizures in epileptic patients
same,Activation of a K(+) current,[2],activate a K(+) current in neuronal cells
